Measurements as given in PubChem BioAssay AID1259407 (Chemical Carcinogenesis Research Information System (CCRIS), 2018).
The source made the active and inactive calls. The rule behind the calls is not given here.

Tested on: CCRIS mutagenicity, Ames/micronucleus/aberration tests
Assay: CCRIS mutagenicity studies
[1] = Test System: AMES SALMONELLA TYPHIMURIUM, Strain/Indicator: TA100, Metabolic Activation: NONE, Method: STANDARD PLATE

In the case of `CCOC(=O)C(C)(C)Oc1ccc(Cl)cc1`, the mutagenic call (End Point: In vitro micronucleus, Test System: Mouse lymphoma L5178Y cells, Metabolic Activation: None) is reported as “active; positive”, the mutagenic call (Test System: AMES SALMONELLA TYPHIMURIUM, Strain/Indicator: TA100(FR1), Metabolic Activation: NONE, Method: STANDARD PLATE) is reported as “inactive; negative” and the mutagenic call (Test System: AMES SALMONELLA TYPHIMURIUM, Strain/Indicator: TA100(FR1), Metabolic Activation: RAT, LIVER, S-9, PHENOBARBITAL AND 3-METHYLCHOLANTHRENE, Method: STANDARD PLATE) is reported as “inactive; negative”. The mutagenic call [1] was “inactive; negative”, the mutagenic call (Test System: AMES SALMONELLA TYPHIMURIUM, Strain/Indicator: TA100, Metabolic Activation: RAT, LIVER, S-9, PHENOBARBITAL AND 3-METHYLCHOLANTHRENE, Method: STANDARD PLATE) was “inactive; negative” and the mutagenic call (Test System: AMES SALMONELLA TYPHIMURIUM, Strain/Indicator: TA102, Metabolic Activation: RAT LIVER S-9, PHENOBARBITAL AND 5,6-BENZOFLAVONE, Method: STANDARD PLATE) was “inactive; negative”. For the same molecule, the mutagenic call (Test System: AMES SALMONELLA TYPHIMURIUM, Strain/Indicator: TA2638, Metabolic Activation: RAT LIVER S-9, PHENOBARBITAL AND 5,6-BENZOFLAVONE, Method: STANDARD PLATE) was “inactive; negative”, the mutagenic call (Test System: CHINESE HAMSTER V-79, Strain/Indicator: V-79/6-THIOGUANINE, Metabolic Activation: NONE) was “inactive; negative” and the mutagenic call (Test System: CHINESE HAMSTER V-79, Strain/Indicator: V-79/6-THIOGUANINE, Metabolic Activation: RAT, LIVER, HEPATOCYTES) was “inactive; negative”. The mutagenic call (Test System: CHINESE HAMSTER V-79, Strain/Indicator: V-79/OUABAIN, Metabolic Activation: NONE) was “inactive; negative”, the mutagenic call (Test System: CHINESE HAMSTER V-79, Strain/Indicator: V-79/OUABAIN, Metabolic Activation: RAT, LIVER, HEPATOCYTES) was “inactive; negative” and the mutagenic call (Test System: E. COLI, Strain/Indicator: WP2 (PKM101), Metabolic Activation: RAT LIVER S-9, PHENOBARBITAL AND 5,6-BENZOFLAVONE, Method: STANDARD PLATE) was “inactive; negative”. The mutagenic call (Test System: E. COLI, Strain/Indicator: WP2 UVRA (PKM101), Metabolic Activation: RAT LIVER S-9, PHENOBARBITAL AND 5,6-BENZOFLAVONE, Method: STANDARD PLATE) was “inactive; negative” and the mutagenic call (Test System: Mouse lymphoma, Strain/Indicator: L5178Y (tk+/tk-)/Trifluorothymidine, Metabolic Activation: None, Method: Microtiter) was “inactive; negative”.

In the case of `Nc1ncc([N+](=O)[O-])s1`, the mutagenic call (Test System: AMES SALMONELLA TYPHIMURIUM, Strain/Indicator: TA98, Metabolic Activation: HAMSTER, LIVER, S-9, AROCLOR 1254, Method: STANDARD PLATE) is reported as “inactive; negative”, the mutagenic call (Test System: AMES SALMONELLA TYPHIMURIUM, Strain/Indicator: TA98, Metabolic Activation: HAMSTER, LIVER, S-9, Method: STANDARD PLATE) is reported as “inactive; negative” and the mutagenic call (Test System: AMES SALMONELLA TYPHIMURIUM, Strain/Indicator: TA98, Metabolic Activation: MOUSE, LIVER, S-9, AROCLOR 1254, Method: STANDARD PLATE) is reported as “inactive; negative”. For the same molecule, the mutagenic call (Test System: AMES SALMONELLA TYPHIMURIUM, Strain/Indicator: TA98, Metabolic Activation: MOUSE, LIVER, S-9, Method: STANDARD PLATE) was “inactive; negative”, the mutagenic call (Test System: AMES SALMONELLA TYPHIMURIUM, Strain/Indicator: TA98, Metabolic Activation: NONE, Method: STANDARD PLATE) was “inactive; negative” and the mutagenic call (Test System: AMES SALMONELLA TYPHIMURIUM, Strain/Indicator: TA98, Metabolic Activation: RAT, LIVER, S-9, AROCLOR 1254, Method: STANDARD PLATE) was “inactive; negative”. The mutagenic call (Test System: AMES SALMONELLA TYPHIMURIUM, Strain/Indicator: TA98, Metabolic Activation: RAT, LIVER, S-9, Method: STANDARD PLATE) was “inactive; negative”, the mutagenic call (Test System: AMES SALMONELLA TYPHIMURIUM, Strain/Indicator: TA100, Metabolic Activation: HAMSTER, LIVER, S-9, AROCLOR 1254, Method: STANDARD PLATE) was “inactive; negative” and the mutagenic call [1] was “inactive; negative”. The mutagenic call (Test System: AMES SALMONELLA TYPHIMURIUM, Strain/Indicator: TA1535, Metabolic Activation: HAMSTER, LIVER, S-9, AROCLOR 1254, Method: STANDARD PLATE) was “inactive; negative”, the mutagenic call (Test System: AMES SALMONELLA TYPHIMURIUM, Strain/Indicator: TA1535, Metabolic Activation: HAMSTER, LIVER, S-9, Method: STANDARD PLATE) was “inactive; negative” and the mutagenic call (Test System: AMES SALMONELLA TYPHIMURIUM, Strain/Indicator: TA1535, Metabolic Activation: MOUSE, LIVER, S-9, AROCLOR 1254, Method: STANDARD PLATE) was “inactive; negative”. The mutagenic call (Test System: AMES SALMONELLA TYPHIMURIUM, Strain/Indicator: TA1535, Metabolic Activation: MOUSE, LIVER, S-9, Method: STANDARD PLATE) was “inactive; negative”, the mutagenic call (Test System: AMES SALMONELLA TYPHIMURIUM, Strain/Indicator: TA1535, Metabolic Activation: NONE, Method: STANDARD PLATE) was “inactive; negative” and the mutagenic call (Test System: AMES SALMONELLA TYPHIMURIUM, Strain/Indicator: TA1535, Metabolic Activation: RAT, LIVER, S-9, AROCLOR 1254, Method: STANDARD PLATE) was “inactive; negative”. For the same molecule, the mutagenic call (Test System: AMES SALMONELLA TYPHIMURIUM, Strain/Indicator: TA1535, Metabolic Activation: RAT, LIVER, S-9, Method: STANDARD PLATE) was “inactive; negative”, the mutagenic call (Test System: AMES SALMONELLA TYPHIMURIUM, Strain/Indicator: TA1537, Metabolic Activation: HAMSTER, LIVER, S-9, AROCLOR 1254, Method: STANDARD PLATE) was “inactive; negative” and the mutagenic call (Test System: AMES SALMONELLA TYPHIMURIUM, Strain/Indicator: TA1537, Metabolic Activation: HAMSTER, LIVER, S-9, Method: STANDARD PLATE) was “inactive; negative”. For the same molecule, the mutagenic call (Test System: AMES SALMONELLA TYPHIMURIUM, Strain/Indicator: TA1537, Metabolic Activation: MOUSE, LIVER, S-9, AROCLOR 1254, Method: STANDARD PLATE) was “inactive; negative”, the mutagenic call (Test System: AMES SALMONELLA TYPHIMURIUM, Strain/Indicator: TA1537, Metabolic Activation: MOUSE, LIVER, S-9, Method: STANDARD PLATE) was “inactive; negative” and the mutagenic call (Test System: AMES SALMONELLA TYPHIMURIUM, Strain/Indicator: TA1537, Metabolic Activation: NONE, Method: STANDARD PLATE) was “inactive; negative”. The mutagenic call (Test System: AMES SALMONELLA TYPHIMURIUM, Strain/Indicator: TA1537, Metabolic Activation: RAT, LIVER, S-9, AROCLOR 1254, Method: STANDARD PLATE) was “inactive; negative”, the mutagenic call (Test System: AMES SALMONELLA TYPHIMURIUM, Strain/Indicator: TA1537, Metabolic Activation: RAT, LIVER, S-9, Method: STANDARD PLATE) was “inactive; negative” and the mutagenic call (Test System: AMES SALMONELLA TYPHIMURIUM, Strain/Indicator: TA1538, Metabolic Activation: HAMSTER, LIVER, S-9, AROCLOR 1254, Method: STANDARD PLATE) was “inactive; negative”. For the same molecule, the mutagenic call (Test System: AMES SALMONELLA TYPHIMURIUM, Strain/Indicator: TA1538, Metabolic Activation: HAMSTER, LIVER, S-9, Method: STANDARD PLATE) was “inactive; negative”, the mutagenic call (Test System: AMES SALMONELLA TYPHIMURIUM, Strain/Indicator: TA1538, Metabolic Activation: MOUSE, LIVER, S-9, AROCLOR 1254, Method: STANDARD PLATE) was “inactive; negative” and the mutagenic call (Test System: AMES SALMONELLA TYPHIMURIUM, Strain/Indicator: TA1538, Metabolic Activation: MOUSE, LIVER, S-9, Method: STANDARD PLATE) was “inactive; negative”. For the same molecule, the mutagenic call (Test System: AMES SALMONELLA TYPHIMURIUM, Strain/Indicator: TA1538, Metabolic Activation: NONE, Method: STANDARD PLATE) was “inactive; negative”, the mutagenic call (Test System: AMES SALMONELLA TYPHIMURIUM, Strain/Indicator: TA1538, Metabolic Activation: RAT, LIVER, S-9, AROCLOR 1254, Method: STANDARD PLATE) was “inactive; negative” and the mutagenic call (Test System: AMES SALMONELLA TYPHIMURIUM, Strain/Indicator: TA1538, Metabolic Activation: RAT, LIVER, S-9, Method: STANDARD PLATE) was “inactive; negative”. For the same molecule, the mutagenic call (Test System: E. COLI, Strain/Indicator: WP2 UVRA, Metabolic Activation: HAMSTER, LIVER, S-9, AROCLOR 1254, Method: STANDARD PLATE) was “inactive; negative”, the mutagenic call (Test System: E. COLI, Strain/Indicator: WP2 UVRA, Metabolic Activation: HAMSTER, LIVER, S-9, Method: STANDARD PLATE) was “inactive; negative” and the mutagenic call (Test System: E. COLI, Strain/Indicator: WP2 UVRA, Metabolic Activation: MOUSE, LIVER, S-9, AROCLOR 1254, Method: STANDARD PLATE) was “inactive; negative”. The mutagenic call (Test System: E. COLI, Strain/Indicator: WP2 UVRA, Metabolic Activation: MOUSE, LIVER, S-9, Method: STANDARD PLATE) was “inactive; negative”, the mutagenic call (Test System: E. COLI, Strain/Indicator: WP2 UVRA, Metabolic Activation: NONE, Method: STANDARD PLATE) was “inactive; negative” and the mutagenic call (Test System: E. COLI, Strain/Indicator: WP2 UVRA, Metabolic Activation: RAT, LIVER, S-9, AROCLOR 1254, Method: STANDARD PLATE) was “inactive; negative”. The mutagenic call (Test System: E. COLI, Strain/Indicator: WP2 UVRA, Metabolic Activation: RAT, LIVER, S-9, Method: STANDARD PLATE) was “inactive; negative”, the mutagenic call (Test System: MOUSE LYMPHOMA, Strain/Indicator: L5178Y (TK+/TK-), Metabolic Activation: NONE, Method: SUSPENSION/PLATE) was “active; positive” and the mutagenic call (Test System: MOUSE LYMPHOMA, Strain/Indicator: L5178Y (TK+/TK-), Metabolic Activation: RAT, LIVER, S-9, AROCLOR 1254, Method: SUSPENSION/PLATE) was “active; positive”.
